Data taken from patent US8268575B2, “NAD biosynthesis systems” (Washington University, priority 2004, dated 2012).
“Also recorded” adds a separate entry of the source.

Assays:
[1] = target: T1, purified recombinant mouse Nampt (Mus musculus, UniProt Q99KQ4); experiment: enzyme-coupled fluorometric assay, kinetic characterization of Nampt; format: biochemical; conditions: substrate of Nampt
T1 construct: the purified full-length His-tagged Nampt and Nmnat recombinant proteins; made in house; host or cells: E. coli BL21(DE3)pLysS
T1 sequence (Q99KQ4 whole entry): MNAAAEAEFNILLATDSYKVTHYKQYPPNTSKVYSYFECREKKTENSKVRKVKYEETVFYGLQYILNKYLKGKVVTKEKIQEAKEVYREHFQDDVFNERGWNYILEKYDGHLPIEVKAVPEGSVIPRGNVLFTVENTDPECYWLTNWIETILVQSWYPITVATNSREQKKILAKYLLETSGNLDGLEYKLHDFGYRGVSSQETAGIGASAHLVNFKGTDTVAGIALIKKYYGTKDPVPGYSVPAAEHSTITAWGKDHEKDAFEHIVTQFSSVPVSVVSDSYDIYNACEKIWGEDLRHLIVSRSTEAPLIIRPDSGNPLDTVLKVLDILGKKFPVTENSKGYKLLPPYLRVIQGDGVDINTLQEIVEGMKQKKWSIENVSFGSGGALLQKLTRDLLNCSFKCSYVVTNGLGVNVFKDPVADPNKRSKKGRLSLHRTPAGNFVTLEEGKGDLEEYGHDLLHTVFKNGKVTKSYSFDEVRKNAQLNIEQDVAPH
Description: (§1) Enzymatic activities of recombinant Nampt and Nmnat proteins were measured by an enzyme-coupled fluorometric assay (see e.g. FIG. 2A). In this enzyme-coupled reaction, NAD is converted to NADH by alcohol dehydrogenase, and the fluorescence of NADH is detected in a fluorometer. To establish this assay system, optimal reaction conditions for Nmnat were initially examined by varying ATP and Mg^2+ concentrations and pH of the reaction buffer. The resultant reaction buffer for Nmnat contained 50 mM HEPES [pH 7.4], 0.02% BSA, 12 mM MgCl2, 2 mM ATP, 1.5% ethanol, and 30 μg/ml alcohol dehydrogenase to convert NAD to NADH. To determine the kinetic parameters for Nmnat, 30 ng of purified His-tagged Nmnat and varying concentrations of NMN were added to 1 ml of the reaction buffer. The reactions were run at 37° C. and quenched at six time points by the addition of 250 μl of 0.5 M EDTA. The production of NADH was measured by excitation at 340 nm and emission at 460 nm in a fluorometer. […] NADH production was measured continuously in a fluorometer.

NIH3T3 cells = experiment: total cellular NAD levels by HPLC in NIH3T3 cells; format: cell-based, mouse; conditions: 5 mM added to the medium
Description: Total cellular levels of NAD was measured in the NIH3T3 cell lines overexpressing the untagged enzymes. High performance liquid chromatography was used to measure NAD (Neubert et al., Biochim. Biophys. Acta. (1964) 92, 610-612; Emanuelli et al., J. Chromatogr. (1996) B. 676, 13-18). Briefly, 5×10^5 cells were plated in 6 cm dishes and harvested 48 h later in 800 μl of ice-cold PBS. Cells were then spun down and lysed with 300 μl of 1 M HClO4 on ice for 10 min. Lysates were cleared by centrifugating at 4° C. at 18,000 g for 5 minutes. Cleared lysates (240 μl) were neutralized by adding 80 μl of 3M K2CO3 and incubating on ice for 10 minutes. After centrifuging for 10 min, 100 μl of the supernatant were mixed with 400 μl of Buffer A and loaded onto the column. The HPLC was run at a flow rate of 1 ml/min with 100% Buffer A from 0 to 5 min, a linear gradient to 95% Buffer A and 5% Buffer B (100% methanol) from 5 to 6 min, 95% Buffer A and 5% Buffer B from 6 to 11 min, a linear gradient to 85% Buffer A and 15% Buffer B from 11 to 13 min, 85% Buffer A and 15% Buffer B from 13 to 23 min, and a linear gradient to 100% Buffer A from 23 to 24 min. NAD was eluted as a sharp peak at 22 min. The amount of NAD was quantitated based on the peak area compared to a standard curve.

[2] = target: GAL4 DBD fused to the Sir2α catalytic core domain (GAL4 DBD-mCORE) (Mus musculus, UniProt Q923E4); conditions: 5 mM, added 24 h after transfection, NIH3T3 cells
Sequence of GAL4 DBD fused to the Sir2α catalytic core domain (GAL4 DBD-mCORE) (Q923E4 with tags, fused parts or gaps): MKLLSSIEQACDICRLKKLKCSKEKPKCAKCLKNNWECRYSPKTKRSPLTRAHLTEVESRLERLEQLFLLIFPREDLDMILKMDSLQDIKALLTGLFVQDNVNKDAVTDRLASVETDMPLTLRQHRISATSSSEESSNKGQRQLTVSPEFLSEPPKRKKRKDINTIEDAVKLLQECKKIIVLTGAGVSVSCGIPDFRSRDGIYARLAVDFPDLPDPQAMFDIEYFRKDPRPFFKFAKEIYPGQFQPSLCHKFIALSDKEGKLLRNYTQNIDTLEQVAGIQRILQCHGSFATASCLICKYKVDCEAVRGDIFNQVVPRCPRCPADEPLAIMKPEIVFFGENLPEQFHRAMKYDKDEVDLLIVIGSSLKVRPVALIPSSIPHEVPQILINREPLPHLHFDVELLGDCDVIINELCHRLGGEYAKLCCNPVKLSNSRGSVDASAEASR
Description: A reporter gene transcription assay using a GAL4 DNA binding domain (GAL4 DBD) fusion system was developed to monitor the transcriptional regulatory activity of the mouse Sir2 ortholog, Sir2α. […] This assay system used the GAL4 DBD fused to the Sir2α catalytic core domain (GAL4 DBD-mCORE) and a luciferase reporter that has a thymidine kinase minimal promoter and four GAL4 binding sites.
For the luciferase assay, 1.2×10^5 NIH3T3 cells were plated in 6 cm dishes. 24 h after plating, cells were transfected for 3 h with 380 ng of pUAS4tk-luc as a reporter, 1.5 μg of pM or pM-GAL4 DBD-mCORE as an effector, and 38 ng of pRL-SV40 (Promega, Wis.) as a normalization control by using Superfect (Qiagen). Transfectants were harvested 48 h after transfection, and luciferase activity was measured with the Dual-Luciferase Reporter Assay System (Promega, Wis.) and a SIRIUS luminometer (Berthold Detection Systems, Germany) according to the manufacturers' protocols. Background luminescence was subtracted and was always less than 1% of measured values. Transfection efficiencies were normalized based on Renilla luciferase activities. […] To examine the effects of Nampt and Nmnat on the transcriptional repressive activity of GAL4 DBD-mCORE, NIH3T3 cells were co-transfected with indicated amounts of Nampt and Nmnat expression vectors along with reporter, effector and normalization control plasmids.

[3] = target: T2, purified recombinant mouse Nmnat (Mus musculus, UniProt Q9EPA7); experiment: enzyme-coupled fluorometric assay, kinetic parameters for Nmnat; format: biochemical; conditions: substrate of Nmnat
T2 construct: the purified full-length His-tagged Nampt and Nmnat recombinant proteins; made in house; host or cells: E. coli BL21(DE3)pLysS
T2 sequence (Q9EPA7 whole entry): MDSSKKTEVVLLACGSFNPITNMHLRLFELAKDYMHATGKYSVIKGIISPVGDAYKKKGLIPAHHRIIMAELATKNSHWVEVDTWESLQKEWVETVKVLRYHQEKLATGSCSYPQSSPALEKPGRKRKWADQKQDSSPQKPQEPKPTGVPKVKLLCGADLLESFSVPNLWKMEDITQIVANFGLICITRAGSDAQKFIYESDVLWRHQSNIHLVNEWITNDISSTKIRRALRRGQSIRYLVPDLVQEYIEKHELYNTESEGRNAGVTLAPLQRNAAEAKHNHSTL
Description: as §1

SMILES | Kcat [1] | Vmax [1] | effect on total cellular NAD (NIH3T3 cells) | effect on transcriptional repressive activity of GAL4 DBD-mCORE [2] | Kcat [3] | Vmax [3] | Km ([3]; 37° C., pH 7.4)
NC(=O)c1cccnc1 [Nicotinamide, 3-pyridinecarboxamide] | 0.020 s⁻¹ | 0.021 µmol/min/mg | did not increase NAD; also recorded: unable to increase NAD | abolished |  |  | 
NC(=O)c1ccc[n+]([C@@H]2O[C@H](COP(=O)([O-])O)[C@@H](O)[C@H]2O)c1 [NMN, nicotinamide mononucleotide] |  |  |  |  | 20.0 s⁻¹ | 34.1 µmol/min/mg | 20.1 µM
O=C(O)c1cccnc1 [nicotinic acid] |  |  |  | not |  |  | 
